What was measured:
[1] = biological target: T1, adenosine A1 receptor (Homo sapiens, UniProt P30542); test: Human A1 receptor pharmacology: GTPγ35[S] assay on membranes; assay type: biochemical; settings: average (SD)
T1 construct: purchased Perkin Elmer ES-010-M400UA
T1 sequence (P30542 1-326): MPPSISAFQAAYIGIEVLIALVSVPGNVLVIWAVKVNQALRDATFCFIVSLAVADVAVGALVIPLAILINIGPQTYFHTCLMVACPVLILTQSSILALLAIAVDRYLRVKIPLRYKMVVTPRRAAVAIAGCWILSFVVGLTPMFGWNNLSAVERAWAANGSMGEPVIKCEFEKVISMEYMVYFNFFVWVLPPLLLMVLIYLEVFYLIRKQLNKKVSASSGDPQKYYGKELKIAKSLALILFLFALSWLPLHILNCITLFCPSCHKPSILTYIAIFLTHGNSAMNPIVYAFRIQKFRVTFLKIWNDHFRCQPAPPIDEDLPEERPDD
Method: (§1) • Human A2a and A2b receptor pharmacology: Chinese hamster ovary CHO-K1 cells stably expressing human A2a and A2b receptors were used to determine substances agonistic potency and intrinsic activity. […] The signal corresponding to adenosine at 100 μmol/L was used to define 100% intrinsic activity. • Human A3 receptor pharmacology: A3 receptor Gi coupling was measured by GTPγ ^35[S] filter assay at serial dilutions of compound using membranes from Perkin-Elmer. The signal corresponding to the maximal response of NECA at 100 μmol/L was set to 100% intrinsic activity. • Lipopolysaccharide (LPS)-induced TNFα production in primary human peripheral blood mononuclear cells (hTNFα PBMC) and rat mononuclears (rTNFα splenocytes): Human PBMC and rat mononuclear spleen cells were incubated with serial dilutions of compound and stimulated with LPS.
The A1 receptor Gi coupling was measured by a scintillation proximity (SPA) GTPγ ^35[S] assay. Membranes (12.5μg/ml final concentration) were incubated with substances in serial dilutions (50mM Hepes, pH 7.4, 1mM MgCl2, 100mM NaCl, 0.01% BSA, 50μg/ml saponin and 2.5μM GDP) including 1mg/ml Scintillation Beads (Wheat Germ Agglutinin PVT SPA, Perkin Elmer - Rpnq0001), 0.3nM of GTPγ ^35[S] (Perkin Elmer - NEG030H) and counts were read after 16h incubation at 4 °C. The signal corresponding to adenosine at 100μM was used to define 100% efficacy.

[2] = biological target: T2, human A2b receptors (Homo sapiens, UniProt P29275); test: Human A2b receptor pharmacology: cAMP Alphascreen in CHO-K1 cells; assay type: cell-based; settings: average (SD)
T2 construct: expressed in transfected cells; host or cells: CHO-K1
T2 sequence (P29275 1-332): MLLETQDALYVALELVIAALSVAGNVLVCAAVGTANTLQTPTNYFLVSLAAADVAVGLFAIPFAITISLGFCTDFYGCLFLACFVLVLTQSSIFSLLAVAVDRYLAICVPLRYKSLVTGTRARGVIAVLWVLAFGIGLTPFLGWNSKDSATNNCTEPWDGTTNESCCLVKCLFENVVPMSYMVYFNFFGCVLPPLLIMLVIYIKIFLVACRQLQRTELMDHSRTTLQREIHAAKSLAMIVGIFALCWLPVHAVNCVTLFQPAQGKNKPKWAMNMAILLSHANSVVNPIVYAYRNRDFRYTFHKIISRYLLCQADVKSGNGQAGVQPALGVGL
Method: as §1
(§2) Chinese hamster ovary CHO-K1 cells stably expressing human A2a and A2b receptors were stored as 1ml aliquots at -150 °C in freezing medium, thawed immediately prior to assay. […] Cells (10000 cells/well) were incubated with test compounds prepared as serial dilutions. Potency (EC50) and efficacy (% of maximal response) were calculated from data fitted to a 4-parameter logistic function. The signal of 10µM NECA represented the maximal cAMP response (i.e. 100% of efficacy) produced by these cells.

[3] = tested on: LPS-induced TNFα production in rat splenocytes; test: LPS-induced TNFα production in rat mononuclear spleen cells (rTNFα splenocytes); assay type: cell-based; settings: Splenocyte
Method: as §1
Procedures and assays were run in R10 buffer (RPMI 1640 Medium supplemented with GlutaMAX™ and HEPES (GIBCO-BRL), 10% fetal calf serum, penicillin and streptomycin (each 5000IU/ml)). Human PBMC were purified from heparinised blood by Ficoll separation (Ficoll, Amersham Pharmacia Biotech AB, Cat: 17-1440-03, Lot: 312170) and rat mononuclear cells were collected after rat spleen perfusion. Both cell preparations were followed by hypotonic lysis of residual erythrocytes. Serial dilutions of compounds were pre-incubated with 200 000 cells/well (96-well plate) for 45min in 37 °C (190µl). Cells were stimulated by 10µl LPS (final concentration 0.5ng/ml human and 150ng/ml rat; SIGMA Cat: L-4516, Lot: 104K4036) for 18h at 37 °C. TNFα release was measured by ELISA (^TmR&D Systems plates) according to the manufacturer’s instructions in cell free supernatant.

[4] = biological target: A2a (Homo sapiens, UniProt P29274); test: Human A2a receptor pharmacology: cAMP Alphascreen in CHO-K1 cells; assay type: cell-based; design: expressed in transfected cells; host or cells: CHO-K1
Method: as §1, §2

[5] = Substance solubility in phosphate buffer; assay type: physicochemical; settings: aqueous buffer, thermodynamic from solid; phosphate buffer pH 7.4, dry compound in solid state
Method: as §1
Solubility was measured in phosphate buffer at pH 7.4 using dry compounds in solid state.

[6] = tested on: blood pressure and heart rate; settings: rat, in vivo
Text: A mixed effect model with fixed effects for time after dose, treatment groups, and number of doses, was set up for the analysis of the blood pressure and HR data (SAS v.9.2). A random intercept was included to allow for individual baseline blood pressures, as well as a random effect on the number of doses. Seven days before initiation of the dosing regimen, 24 rats were anaesthetized (isoflurane) and a small telemetry unit (PA-C10, Data Sciences International, USA) was placed subcutaneously on the left side of the throat with the catheter going into the left carotid artery. […] The compound was given by intratracheal instillation as described above, for 5 consecutive days, and blood pressure and heart rate were continuously recorded, apart from the brief period during compound administration.

Chain of A2a (P29274 whole entry): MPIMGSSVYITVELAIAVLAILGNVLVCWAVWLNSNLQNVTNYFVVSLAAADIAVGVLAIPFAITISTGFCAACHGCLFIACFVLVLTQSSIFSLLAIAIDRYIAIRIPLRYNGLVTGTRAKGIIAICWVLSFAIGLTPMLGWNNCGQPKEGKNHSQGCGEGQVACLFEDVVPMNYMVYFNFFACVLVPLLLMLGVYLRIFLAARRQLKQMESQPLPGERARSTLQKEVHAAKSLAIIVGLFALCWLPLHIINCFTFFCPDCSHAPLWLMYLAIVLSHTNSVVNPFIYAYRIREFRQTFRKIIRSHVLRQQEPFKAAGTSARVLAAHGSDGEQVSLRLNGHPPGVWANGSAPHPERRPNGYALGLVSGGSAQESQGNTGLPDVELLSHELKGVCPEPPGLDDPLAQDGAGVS

SMILES: CCNC(=O)[C@H]1O[C@@H](n2cnc3c(NC(CC)CC)nc(NCCNC(=O)Nc4cc[n+](C)cc4)nc32)[C@H](O)[C@@H]1O [Compound 2, (2S,3S,4R,5R)-N-ethyl-5-[6-(1-ethylpropylamino)-2-[2-[(1-methylpyridin-1-ium-4-yl)carbamoylamino]ethylamino]purin-9-yl]-3,4-dihydroxy-tetrahydrofuran-2-carboxamide]
- EC50 [1]: 2100 nM
- EC50 [2]: 3600 nM
- EC50 ([3]; Rattus norvegicus, read-out: EC50, inhibition of LPS stimulated TNFα release in rat splenocytes): 0.6 nM
- IC50 ([3]; LPS-stimulated TNFα release, rat splenocytes, average (SD)): 0.6 nM
- Emax ([3]; LPS-stimulated TNFα release, rat splenocytes, average (SD), read-out: rTNFα splenocytes Intrinsic activity): 57.4%
- Emax ([4]; CHO-K1, 100% = 10 μmol/L NECA, average (SD), read-out: A2a human CHO-K1 cells Intrinsic activity): 97.9%
- EC50 ([4]; cAMP generation, average (SD)): 1.4 nM
- Selectivity for A2a over A1, A2b and A3 ([4]; human adenosine receptors): > 1000 fold
- solubility [5]: > 1000 µM
- Tachyphylaxis for the HR [6]: did not demonstrate any tachyphylaxis
